What all share (test): biochemical
Common to all, as to design: DiscoverX KinomeScan competition binding assay across human kinases; per cent of control at 10 and 100 uM

The target in one assay is PLK1 (Homo sapiens, UniProt P53350). The note with it: competition binding, % of control; read-out: Percent Control (100 uM Levosimendan). In a few lines:
(§1)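 Binding is expressed as %control, normalised between positive and negative control signals. The compound (levosimendan) was tested at 10 μM and 100 μM in the DiscoverX KinomeScan competition binding format against human kinases.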

The next assay addresses GRK3 (Homo sapiens, UniProt P35626). The note with it: competition binding, % of control; read-out: Percent Control (100 uM Levosimendan). In a few lines:
as §1

The target of another assay is T1, p38-beta (Homo sapiens, UniProt Q15759).
T1 construct: gene MAPK11
The note with it: competition binding, % of control; read-out: Percent Control (100 uM Levosimendan). Summed up:
as §1

In a further assay the target is T2, S6K1 (Homo sapiens, UniProt P23443).
T2 construct: gene RPS6KB1
The note with it: competition binding, % of control. Summed up: as §1

The target of the next assay is NEK3 (Homo sapiens, UniProt P51956). The note with it: competition binding, % of control; read-out: Percent Control (100 uM Levosimendan). Summed up:
as §1

Another assay has as its target T3, MST3 (Homo sapiens, UniProt Q9Y6E0).
T3 construct: gene STK24
To be noted: competition binding, % of control; read-out: Percent Control (100 uM Levosimendan). In a few lines:
as §1

For the next assay, the target named is LCK (Homo sapiens, UniProt P06239). To be noted: competition binding, % of control. Summed up:
as §1

Assay [1] has as its target T4, JAK2(JH1domain-catalytic) (Homo sapiens, UniProt O60674).
T4 construct: JH1domain-catalytic
The note with it: competition binding, % of control. In a few lines:
as §1

The next assay concerns the target T5, ERK3 (Homo sapiens, UniProt Q16659).
T5 construct: gene MAPK6
To be noted: competition binding, % of control; read-out: Percent Control (100 uM Levosimendan). Summed up: as §1

In the next assay the target is LRRK2 (Homo sapiens, UniProt Q5S007). The note with it: competition binding, % of control; read-out: Percent Control (100 uM Levosimendan). In a few lines:
as §1

In the next assay the target is ACVR1B (Homo sapiens, UniProt P36896). The note with it: competition binding, % of control; read-out: Percent Control (100 uM Levosimendan). Summed up: as §1
The target in another assay is PRKD3 (Homo sapiens, UniProt O94806). To be noted: competition binding, % of control; read-out: Percent Control (100 uM Levosimendan). Summed up: as §1
Another assay has as its target T6, DRAK1 (Homo sapiens, UniProt Q9UEE5).
T6 construct: gene STK17A
The note with it: competition binding, % of control. Summed up:
as §1

In a further assay the target is PRKCH (Homo sapiens, UniProt P24723). To be noted: competition binding, % of control; read-out: Percent Control (100 uM Levosimendan). Summed up: as §1
For another assay, the target named is T7, TIE2 (Homo sapiens, UniProt Q02763).
T7 construct: gene TEK
To be noted: competition binding, % of control; read-out: Percent Control (100 uM Levosimendan). In a few lines: as §1

The target of another assay is PIK3CD (Homo sapiens, UniProt O00329). To be noted: competition binding, % of control; read-out: Percent Control (100 uM Levosimendan). Summed up:
as §1

For the next assay, the target named is FES (Homo sapiens, UniProt P07332). The note with it: competition binding, % of control; read-out: Percent Control (100 uM Levosimendan). Summed up: as §1
For a further assay, the target named is T8, PCTK3 (Homo sapiens, UniProt Q07002).
T8 construct: gene CDK18
The note with it: competition binding, % of control; read-out: Percent Control (100 uM Levosimendan). In a few lines:
as §1

In a further assay the target is BLK (Homo sapiens, UniProt P51451). To be noted: competition binding, % of control. Summed up:
as §1

Setting [2] is: read-out: Percent Control (10 uM Levosimendan).
The mark [3] stands for this setting: read-out: Percent Control (100 uM Levosimendan).

These results are taken from publication PMC6576746, “Rational discovery of dual-indication multi-target PDE/Kinase inhibitor for precision anti-cancer therapy using structural systems pharmacology” (PLoS Computational Biology, 2019).

Chain of BLK (P51451 whole entry): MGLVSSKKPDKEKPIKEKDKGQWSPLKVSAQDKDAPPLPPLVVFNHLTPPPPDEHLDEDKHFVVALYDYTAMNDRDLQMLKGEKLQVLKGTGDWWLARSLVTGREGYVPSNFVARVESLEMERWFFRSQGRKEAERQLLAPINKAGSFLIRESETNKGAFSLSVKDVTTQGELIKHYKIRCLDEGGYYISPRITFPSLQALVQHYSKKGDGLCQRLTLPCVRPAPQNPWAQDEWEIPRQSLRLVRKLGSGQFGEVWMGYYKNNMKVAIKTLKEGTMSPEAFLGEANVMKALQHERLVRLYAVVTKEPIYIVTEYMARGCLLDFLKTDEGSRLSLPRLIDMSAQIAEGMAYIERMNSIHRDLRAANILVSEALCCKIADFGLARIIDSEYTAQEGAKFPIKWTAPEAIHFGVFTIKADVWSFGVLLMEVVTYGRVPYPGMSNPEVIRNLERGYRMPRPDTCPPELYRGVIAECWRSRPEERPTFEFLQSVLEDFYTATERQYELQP
Chain of LCK (P06239 whole entry): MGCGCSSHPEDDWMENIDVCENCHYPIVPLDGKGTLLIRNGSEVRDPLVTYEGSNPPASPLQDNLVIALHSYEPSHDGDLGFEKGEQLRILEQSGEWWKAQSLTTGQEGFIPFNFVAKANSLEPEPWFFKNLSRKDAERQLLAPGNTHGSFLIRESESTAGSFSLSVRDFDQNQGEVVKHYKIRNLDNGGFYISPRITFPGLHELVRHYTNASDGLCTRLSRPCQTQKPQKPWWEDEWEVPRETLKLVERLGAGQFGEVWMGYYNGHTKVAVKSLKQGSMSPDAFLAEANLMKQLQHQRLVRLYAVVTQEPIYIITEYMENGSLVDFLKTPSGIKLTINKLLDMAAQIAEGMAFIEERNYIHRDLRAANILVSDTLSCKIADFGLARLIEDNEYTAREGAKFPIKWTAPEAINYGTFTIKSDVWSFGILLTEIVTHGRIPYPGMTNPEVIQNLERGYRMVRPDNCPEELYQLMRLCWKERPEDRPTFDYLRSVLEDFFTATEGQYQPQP
T2 sequence (P23443 whole entry): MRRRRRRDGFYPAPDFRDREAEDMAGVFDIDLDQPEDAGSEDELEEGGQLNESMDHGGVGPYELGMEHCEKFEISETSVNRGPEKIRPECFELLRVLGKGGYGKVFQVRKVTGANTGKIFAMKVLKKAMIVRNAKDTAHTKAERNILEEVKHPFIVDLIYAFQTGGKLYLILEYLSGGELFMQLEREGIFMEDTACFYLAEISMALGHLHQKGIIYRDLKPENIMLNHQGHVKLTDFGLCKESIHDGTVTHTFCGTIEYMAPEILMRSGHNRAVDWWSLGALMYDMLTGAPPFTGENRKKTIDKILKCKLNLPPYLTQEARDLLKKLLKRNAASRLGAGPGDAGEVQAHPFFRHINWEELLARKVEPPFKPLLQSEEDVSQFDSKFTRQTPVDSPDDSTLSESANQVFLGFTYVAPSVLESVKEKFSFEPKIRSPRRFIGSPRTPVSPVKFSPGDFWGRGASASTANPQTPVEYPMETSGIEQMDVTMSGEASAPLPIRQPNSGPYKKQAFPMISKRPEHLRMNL
T6 sequence (Q9UEE5 whole entry): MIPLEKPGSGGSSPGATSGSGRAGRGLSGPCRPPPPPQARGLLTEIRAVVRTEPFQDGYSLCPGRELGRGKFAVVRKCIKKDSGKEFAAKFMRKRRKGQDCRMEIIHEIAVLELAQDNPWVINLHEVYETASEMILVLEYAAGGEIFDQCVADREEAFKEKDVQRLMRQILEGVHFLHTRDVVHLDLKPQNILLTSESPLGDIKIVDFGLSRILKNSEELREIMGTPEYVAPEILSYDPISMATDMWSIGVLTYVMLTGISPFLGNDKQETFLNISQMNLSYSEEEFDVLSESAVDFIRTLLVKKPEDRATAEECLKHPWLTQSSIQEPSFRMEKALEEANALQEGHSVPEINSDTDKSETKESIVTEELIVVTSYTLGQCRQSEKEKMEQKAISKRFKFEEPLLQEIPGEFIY
T4 sequence (O60674 whole entry): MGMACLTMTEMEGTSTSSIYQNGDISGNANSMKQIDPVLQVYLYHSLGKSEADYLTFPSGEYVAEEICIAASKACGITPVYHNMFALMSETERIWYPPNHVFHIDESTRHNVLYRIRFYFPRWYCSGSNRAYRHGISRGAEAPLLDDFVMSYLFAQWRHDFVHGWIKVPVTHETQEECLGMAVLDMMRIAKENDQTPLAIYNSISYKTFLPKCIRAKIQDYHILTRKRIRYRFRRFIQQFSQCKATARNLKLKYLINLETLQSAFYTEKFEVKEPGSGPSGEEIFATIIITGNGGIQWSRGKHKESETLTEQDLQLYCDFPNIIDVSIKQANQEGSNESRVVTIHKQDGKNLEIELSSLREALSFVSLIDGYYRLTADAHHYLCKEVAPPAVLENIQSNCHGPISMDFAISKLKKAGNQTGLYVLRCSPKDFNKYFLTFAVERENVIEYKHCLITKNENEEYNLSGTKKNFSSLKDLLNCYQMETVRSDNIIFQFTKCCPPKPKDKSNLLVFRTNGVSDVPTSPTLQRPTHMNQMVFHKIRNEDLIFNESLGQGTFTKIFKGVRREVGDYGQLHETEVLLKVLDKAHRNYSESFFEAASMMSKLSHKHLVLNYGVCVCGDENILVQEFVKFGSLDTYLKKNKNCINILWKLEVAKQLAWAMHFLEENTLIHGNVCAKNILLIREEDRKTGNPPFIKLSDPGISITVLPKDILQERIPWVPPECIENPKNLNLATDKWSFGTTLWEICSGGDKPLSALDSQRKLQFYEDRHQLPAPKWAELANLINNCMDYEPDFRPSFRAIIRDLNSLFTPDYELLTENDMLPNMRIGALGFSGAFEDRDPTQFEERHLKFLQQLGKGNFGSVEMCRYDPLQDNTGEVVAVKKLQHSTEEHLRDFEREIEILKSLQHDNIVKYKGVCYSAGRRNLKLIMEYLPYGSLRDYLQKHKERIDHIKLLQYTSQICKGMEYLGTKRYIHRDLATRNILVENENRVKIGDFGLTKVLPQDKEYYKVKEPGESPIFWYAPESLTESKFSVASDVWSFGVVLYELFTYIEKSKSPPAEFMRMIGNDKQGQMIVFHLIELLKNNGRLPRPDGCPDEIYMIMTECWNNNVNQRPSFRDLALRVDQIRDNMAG
T7 sequence (Q02763 whole entry): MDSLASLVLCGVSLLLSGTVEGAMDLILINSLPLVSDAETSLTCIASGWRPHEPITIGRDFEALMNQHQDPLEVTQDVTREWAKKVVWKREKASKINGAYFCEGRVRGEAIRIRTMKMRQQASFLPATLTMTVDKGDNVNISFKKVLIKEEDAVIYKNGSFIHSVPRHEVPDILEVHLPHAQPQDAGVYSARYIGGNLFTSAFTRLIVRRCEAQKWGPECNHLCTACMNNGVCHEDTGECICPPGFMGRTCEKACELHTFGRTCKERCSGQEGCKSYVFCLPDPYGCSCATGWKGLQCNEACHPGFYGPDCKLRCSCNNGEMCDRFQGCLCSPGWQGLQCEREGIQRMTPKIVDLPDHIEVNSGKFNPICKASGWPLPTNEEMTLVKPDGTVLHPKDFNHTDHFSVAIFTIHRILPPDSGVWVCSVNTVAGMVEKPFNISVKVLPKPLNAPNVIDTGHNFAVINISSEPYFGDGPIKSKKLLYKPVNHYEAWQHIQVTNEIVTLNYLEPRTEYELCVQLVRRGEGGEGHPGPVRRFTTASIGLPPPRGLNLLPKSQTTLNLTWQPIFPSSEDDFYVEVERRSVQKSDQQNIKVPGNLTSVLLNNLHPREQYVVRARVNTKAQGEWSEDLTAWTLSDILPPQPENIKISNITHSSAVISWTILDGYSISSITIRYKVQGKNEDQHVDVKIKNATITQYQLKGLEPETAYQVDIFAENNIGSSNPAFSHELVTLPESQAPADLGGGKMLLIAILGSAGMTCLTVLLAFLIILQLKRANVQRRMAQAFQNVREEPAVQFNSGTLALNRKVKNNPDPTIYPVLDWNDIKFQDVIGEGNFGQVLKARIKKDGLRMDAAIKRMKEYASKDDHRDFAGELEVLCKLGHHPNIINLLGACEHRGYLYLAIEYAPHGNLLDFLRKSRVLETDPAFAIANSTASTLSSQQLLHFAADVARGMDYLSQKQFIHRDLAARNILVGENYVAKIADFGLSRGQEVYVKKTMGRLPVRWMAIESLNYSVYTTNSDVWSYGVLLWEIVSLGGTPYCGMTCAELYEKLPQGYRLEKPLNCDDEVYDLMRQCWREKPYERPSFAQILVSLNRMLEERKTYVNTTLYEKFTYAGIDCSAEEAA
T1 sequence (Q15759 whole entry): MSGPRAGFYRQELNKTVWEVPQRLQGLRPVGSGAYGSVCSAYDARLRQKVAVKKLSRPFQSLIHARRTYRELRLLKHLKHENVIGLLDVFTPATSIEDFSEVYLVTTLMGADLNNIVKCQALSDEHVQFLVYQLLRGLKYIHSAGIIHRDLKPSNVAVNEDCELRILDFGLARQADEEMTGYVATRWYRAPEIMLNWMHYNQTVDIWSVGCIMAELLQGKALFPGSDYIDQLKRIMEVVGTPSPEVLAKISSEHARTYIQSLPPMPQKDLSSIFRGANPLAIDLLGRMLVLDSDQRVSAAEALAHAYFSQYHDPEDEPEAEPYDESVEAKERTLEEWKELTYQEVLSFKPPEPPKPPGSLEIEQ
T8 sequence (Q07002 whole entry): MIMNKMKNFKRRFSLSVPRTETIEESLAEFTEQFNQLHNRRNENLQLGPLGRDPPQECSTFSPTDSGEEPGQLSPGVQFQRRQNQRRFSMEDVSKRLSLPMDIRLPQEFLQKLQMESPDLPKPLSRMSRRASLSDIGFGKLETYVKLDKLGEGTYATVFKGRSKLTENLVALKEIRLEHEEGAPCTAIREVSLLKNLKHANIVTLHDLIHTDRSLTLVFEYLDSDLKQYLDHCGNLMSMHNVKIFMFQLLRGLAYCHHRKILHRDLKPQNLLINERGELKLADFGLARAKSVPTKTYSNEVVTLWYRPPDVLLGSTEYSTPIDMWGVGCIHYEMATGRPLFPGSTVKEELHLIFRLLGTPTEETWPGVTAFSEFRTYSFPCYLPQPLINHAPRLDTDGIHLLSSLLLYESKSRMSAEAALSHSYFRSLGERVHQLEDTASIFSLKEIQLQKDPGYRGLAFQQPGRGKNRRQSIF

For `C[C@@H]1CC(=O)NN=C1c1ccc(NN=C(C#N)C#N)cc1` [levosimendan], the remaining binding at 100 µM is 100% at PLK1; 100% at GRK3; 94% on p38-beta; 43% at S6K1 (setting [3]); 78% at NEK3; 96% at MST3. The remaining binding at 100 µM worked out at 46% on LCK (setting [3]); 49% in [1] (setting [3]); 79% on ERK3; 77% at LRRK2; 61% at ACVR1B; 100% on PRKD3. The remaining binding at 100 µM on DRAK1 (setting [3]) came to 22%; at PRKCH it was 69%; on TIE2, 78%; at PIK3CD it was 100%; at FES, 76%; on PCTK3, 100%. Further, the remaining binding at 100 µM on BLK (setting [3]) came to 50%. The remaining binding at 10 µM worked out at 84% at S6K1 (setting [2]); 89% at LCK (setting [2]); 88% in assay [1] (setting [2]); 87% at DRAK1 (setting [2]); 79% at BLK (setting [2]).
